Data as given in ChEMBL document CHEMBL2010722, “Structure-activity relationship study of beta-carboline derivatives as haspin kinase inhibitors” (Bioorg Med Chem Lett, 2012).

Tests used:
[1] = target: Myosin light chain kinase 2, skeletal/cardiac muscle (Homo sapiens) (UniProt Q9H1R3); test: Inhibition of skMLCK at 10 uM
[2] = target: Dual specificity tyrosine-phosphorylation-regulated kinase 3 (Homo sapiens) (UniProt O43781); test: Inhibition of DYRK3 at 10 uM
[3] = target: Cyclin-dependent kinase 2/cyclin E1 (Homo sapiens) (UniProt P24864+P24941); test: Inhibition of CDK2-Cyclin E1 at 10 uM; format: protein-complex assay
[4] = target: Tyrosine-protein kinase ITK/TSK (Homo sapiens) (UniProt Q08881); test: Inhibition of ITK at 10 uM
[5] = target: Angiopoietin-1 receptor (Homo sapiens) (UniProt Q02763); test: Inhibition of TIE2 at 10 uM
[6] = target: Casein kinase I isoform gamma-2 (Homo sapiens) (UniProt P78368); test: Inhibition of CK1g2 at 10 uM
[7] = target: Dual specificity protein kinase CLK1 (Homo sapiens) (UniProt P49759); settings: 10 uM
[8] = target: Protein kinase C delta type (Homo sapiens) (UniProt Q05655); test: Inhibition of PKCdelta at 10 uM
[9] = target: Aurora kinase A (Homo sapiens) (UniProt O14965); test: Inhibition of AurA at 10 uM
[10] = target: Serine/threonine-protein kinase Nek4 (Homo sapiens) (UniProt P51957); test: Inhibition of NEK4 at 10 uM
[11] = target: Protein kinase C beta type (Homo sapiens) (UniProt P05771); test: Inhibition of PKCbeta1 at 10 uM
[12] = target: Homeodomain-interacting protein kinase 1 (Homo sapiens) (UniProt Q86Z02); test: Inhibition of HIPK1 at 10 uM
[13] = target: Mitogen-activated protein kinase kinase kinase 1 (Homo sapiens) (UniProt Q13233); test: Inhibition of MAP3K1 at 10 uM
[14] = target: Protein kinase C theta type (Homo sapiens) (UniProt Q04759); test: Inhibition of PKCq at 10 uM
[15] = target: Dual specificity protein kinase TTK (Homo sapiens) (UniProt P33981); test: Inhibition of TTK at 10 uM
[16] = target: Serine/threonine-protein kinase Nek2 (Homo sapiens) (UniProt P51955); test: Inhibition of NEK2 at 10 uM
[17] = target: Cyclin-dependent kinase 7/ cyclin H (Homo sapiens) (UniProt P51946+P50613); test: Inhibition of CDK7-CycH-MAT1 at 10 uM; format: protein-complex assay
[18] = target: Serine/threonine-protein kinase 26 (Homo sapiens) (UniProt Q9P289); test: Inhibition of MST4 at 10 uM
[19] = target: Ephrin type-B receptor 1 (Homo sapiens) (UniProt P54762); test: Inhibition of EPHB1 at 10 uM
[20] = target: Activated CDC42 kinase 1 (Homo sapiens) (UniProt Q07912); test: Inhibition of TNK2 at 10 uM
[21] = target: Serine/threonine-protein kinase Nek6 (Homo sapiens) (UniProt Q9HC98); test: Inhibition of NEK6 at 10 uM
[22] = target: Proto-oncogene tyrosine-protein kinase ROS (Homo sapiens) (UniProt P08922); test: Inhibition of ROS at 10 uM
[23] = target: Interleukin-1 receptor-associated kinase 4 (Homo sapiens) (UniProt Q9NWZ3); test: Inhibition of IRAK4 at 10 uM
[24] = target: Ribosomal protein S6 kinase alpha-3 (Homo sapiens) (UniProt P51812); test: Inhibition of RSK2 N-terminal at 10 uM
[25] = test system: Serine/threonine-protein kinase B-raf (Homo sapiens), P15056 [V600E]; test: Inhibition of BRAF V600E mutant at 10 uM
[26] = target: AMP-activated protein kinase, AMPK (Homo sapiens) (UniProt P54646+O43741+P54619+Q9UGJ0+Q9Y478+Q13131+Q9UGI9); test: Inhibition of AMPKalpha2/beta1/gamma1 at 10 uM; format: protein-complex assay
[27] = target: Eukaryotic elongation factor 2 kinase (Homo sapiens) (UniProt O00418); test: Inhibition of EEF2K at 10 uM
[28] = target: cAMP-dependent protein kinase catalytic subunit PRKX (Homo sapiens) (UniProt P51817); test: Inhibition of PRKX at 10 uM
[29] = target: Casein kinase I isoform delta (Homo sapiens) (UniProt P48730); test: Inhibition of CK1d at 10 uM
[30] = target: Homeodomain-interacting protein kinase 2 (Homo sapiens) (UniProt Q9H2X6); test: Inhibition of HIPK2 at 10 uM
[31] = target: Serine/threonine-protein kinase SIK1 (Homo sapiens) (UniProt P57059); test: Inhibition of SIK at 10 uM
[32] = target: Misshapen-like kinase 1 (Homo sapiens) (UniProt Q8N4C8); test: Inhibition of MINK at 10 uM
[33] = target: Tyrosine-protein kinase Yes (Homo sapiens) (UniProt P07947); test: Inhibition of YES at 10 uM
[34] = target: Serine/threonine-protein kinase 38-like (Homo sapiens) (UniProt Q9Y2H1); test: Inhibition of NDR2 at 10 uM
[35] = target: Mast/stem cell growth factor receptor Kit (Homo sapiens) (UniProt P10721); test: Inhibition of KIT at 10 uM
[36] = target: Tyrosine-protein kinase Mer (Homo sapiens) (UniProt Q12866); test: Inhibition of MER at 10 uM
[37] = target: Mitogen-activated protein kinase kinase kinase 2 (Homo sapiens) (UniProt Q9Y2U5); test: Inhibition of MAP3K2 at 10 uM
[38] = target: Serine/threonine-protein kinase SIK2 (Homo sapiens) (UniProt Q9H0K1); test: Inhibition of QIK at 10 uM
[39] = target: Dual specificity mitogen-activated protein kinase kinase 2 (Homo sapiens) (UniProt P36507); test: Inhibition of MAP2K2 at 10 uM
[40] = target: Calcium/calmodulin-dependent protein kinase type IV (Homo sapiens) (UniProt Q16566); test: Inhibition of CaMK4 at 10 uM
[41] = target: Serine/threonine-protein kinase PAK 2 (Homo sapiens) (UniProt Q13177); test: Inhibition of PAK2 at 10 uM
[42] = target: Dual specificity mitogen-activated protein kinase kinase 4 (Homo sapiens) (UniProt P45985); test: Inhibition of MAP2K4 at 10 uM
[43] = target: LKB1-STRAD-MO25 complex (Homo sapiens) (UniProt Q15831+Q7RTN6+Q9Y376); test: Inhibition of LKB1-MO25a-STRADa at 10 uM; format: protein-complex assay
[44] = target: Tyrosine-protein kinase JAK3 (Homo sapiens) (UniProt P52333); test: Inhibition of JAK3 at 10 uM
[45] = target: Serine/threonine-protein kinase pim-3 (Homo sapiens) (UniProt Q86V86); test: Inhibition of PIM3 at 10 uM

Sequence of Serine/threonine-protein kinase SIK2 (Homo sapiens) (Q9H0K1 whole entry, looked up): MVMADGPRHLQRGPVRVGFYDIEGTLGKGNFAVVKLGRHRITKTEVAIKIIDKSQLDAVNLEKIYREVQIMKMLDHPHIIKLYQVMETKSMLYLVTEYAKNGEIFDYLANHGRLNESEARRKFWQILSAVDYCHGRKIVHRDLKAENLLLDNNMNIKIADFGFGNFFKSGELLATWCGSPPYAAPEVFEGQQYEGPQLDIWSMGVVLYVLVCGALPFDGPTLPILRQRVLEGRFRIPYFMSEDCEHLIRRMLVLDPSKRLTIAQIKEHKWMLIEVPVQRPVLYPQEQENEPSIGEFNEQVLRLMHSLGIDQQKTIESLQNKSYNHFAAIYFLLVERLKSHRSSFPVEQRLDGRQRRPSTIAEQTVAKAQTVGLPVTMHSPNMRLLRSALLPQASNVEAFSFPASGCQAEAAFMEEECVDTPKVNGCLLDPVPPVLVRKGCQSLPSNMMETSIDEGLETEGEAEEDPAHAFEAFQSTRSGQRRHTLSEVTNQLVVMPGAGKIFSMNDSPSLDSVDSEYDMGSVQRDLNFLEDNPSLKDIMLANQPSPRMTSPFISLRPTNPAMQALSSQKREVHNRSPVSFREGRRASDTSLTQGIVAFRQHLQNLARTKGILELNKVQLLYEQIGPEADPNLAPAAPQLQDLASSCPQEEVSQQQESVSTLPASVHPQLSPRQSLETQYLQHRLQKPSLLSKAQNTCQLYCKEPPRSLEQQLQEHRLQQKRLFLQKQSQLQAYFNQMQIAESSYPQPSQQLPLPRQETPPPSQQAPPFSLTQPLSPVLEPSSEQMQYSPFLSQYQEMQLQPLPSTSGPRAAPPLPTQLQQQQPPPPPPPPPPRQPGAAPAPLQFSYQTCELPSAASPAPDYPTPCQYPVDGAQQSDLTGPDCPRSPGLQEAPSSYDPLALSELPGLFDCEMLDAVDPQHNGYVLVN
Sequence of Eukaryotic elongation factor 2 kinase (Homo sapiens) (O00418 whole entry): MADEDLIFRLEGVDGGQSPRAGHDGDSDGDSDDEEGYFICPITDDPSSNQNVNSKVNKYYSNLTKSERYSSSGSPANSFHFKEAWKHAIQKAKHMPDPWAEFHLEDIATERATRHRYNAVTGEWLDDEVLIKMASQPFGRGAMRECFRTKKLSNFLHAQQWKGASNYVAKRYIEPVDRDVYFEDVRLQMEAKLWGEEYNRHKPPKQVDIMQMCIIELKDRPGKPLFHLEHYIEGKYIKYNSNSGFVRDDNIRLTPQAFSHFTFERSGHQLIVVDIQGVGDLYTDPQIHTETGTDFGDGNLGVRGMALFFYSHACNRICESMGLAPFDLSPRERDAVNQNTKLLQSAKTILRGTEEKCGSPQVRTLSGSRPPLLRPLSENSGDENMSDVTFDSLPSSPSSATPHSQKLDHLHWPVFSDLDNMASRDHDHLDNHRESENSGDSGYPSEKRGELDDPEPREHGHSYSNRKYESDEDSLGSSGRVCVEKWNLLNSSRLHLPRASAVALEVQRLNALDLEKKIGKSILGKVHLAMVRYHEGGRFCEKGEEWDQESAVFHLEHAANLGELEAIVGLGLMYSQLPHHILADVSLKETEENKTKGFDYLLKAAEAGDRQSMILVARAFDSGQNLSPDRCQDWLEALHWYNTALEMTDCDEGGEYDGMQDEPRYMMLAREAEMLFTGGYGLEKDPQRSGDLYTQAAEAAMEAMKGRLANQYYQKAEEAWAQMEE
Sequence of Tyrosine-protein kinase JAK3 (Homo sapiens) (P52333 whole entry): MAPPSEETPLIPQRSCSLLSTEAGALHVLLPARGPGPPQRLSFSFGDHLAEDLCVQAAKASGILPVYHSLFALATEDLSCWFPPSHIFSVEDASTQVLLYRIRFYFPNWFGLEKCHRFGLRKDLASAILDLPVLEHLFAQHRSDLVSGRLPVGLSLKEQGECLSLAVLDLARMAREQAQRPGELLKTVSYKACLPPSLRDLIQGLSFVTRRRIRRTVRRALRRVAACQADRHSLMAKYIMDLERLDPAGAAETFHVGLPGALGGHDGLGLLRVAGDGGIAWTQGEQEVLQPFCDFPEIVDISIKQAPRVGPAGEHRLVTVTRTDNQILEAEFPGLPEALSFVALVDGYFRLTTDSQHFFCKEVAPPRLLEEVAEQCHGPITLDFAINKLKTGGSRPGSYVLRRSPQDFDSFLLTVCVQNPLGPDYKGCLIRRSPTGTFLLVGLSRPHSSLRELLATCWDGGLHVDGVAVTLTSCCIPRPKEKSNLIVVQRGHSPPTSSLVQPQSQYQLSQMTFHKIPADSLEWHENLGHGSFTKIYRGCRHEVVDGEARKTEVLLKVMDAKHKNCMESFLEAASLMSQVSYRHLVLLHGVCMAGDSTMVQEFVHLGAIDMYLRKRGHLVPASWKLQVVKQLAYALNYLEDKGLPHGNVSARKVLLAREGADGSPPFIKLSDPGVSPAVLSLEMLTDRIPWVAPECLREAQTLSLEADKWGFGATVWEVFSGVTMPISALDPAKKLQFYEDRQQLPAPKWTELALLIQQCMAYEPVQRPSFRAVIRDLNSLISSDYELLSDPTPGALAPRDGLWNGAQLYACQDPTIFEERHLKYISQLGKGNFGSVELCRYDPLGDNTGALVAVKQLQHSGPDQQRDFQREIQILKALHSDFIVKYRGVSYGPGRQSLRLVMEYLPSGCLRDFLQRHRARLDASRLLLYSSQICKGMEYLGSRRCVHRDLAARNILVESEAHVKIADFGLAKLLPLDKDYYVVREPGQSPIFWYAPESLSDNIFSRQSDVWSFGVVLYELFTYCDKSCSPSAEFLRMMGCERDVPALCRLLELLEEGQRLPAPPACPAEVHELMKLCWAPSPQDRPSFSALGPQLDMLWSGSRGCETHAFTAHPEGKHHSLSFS
Sequence of Homeodomain-interacting protein kinase 2 (Homo sapiens) (Q9H2X6 whole entry, looked up): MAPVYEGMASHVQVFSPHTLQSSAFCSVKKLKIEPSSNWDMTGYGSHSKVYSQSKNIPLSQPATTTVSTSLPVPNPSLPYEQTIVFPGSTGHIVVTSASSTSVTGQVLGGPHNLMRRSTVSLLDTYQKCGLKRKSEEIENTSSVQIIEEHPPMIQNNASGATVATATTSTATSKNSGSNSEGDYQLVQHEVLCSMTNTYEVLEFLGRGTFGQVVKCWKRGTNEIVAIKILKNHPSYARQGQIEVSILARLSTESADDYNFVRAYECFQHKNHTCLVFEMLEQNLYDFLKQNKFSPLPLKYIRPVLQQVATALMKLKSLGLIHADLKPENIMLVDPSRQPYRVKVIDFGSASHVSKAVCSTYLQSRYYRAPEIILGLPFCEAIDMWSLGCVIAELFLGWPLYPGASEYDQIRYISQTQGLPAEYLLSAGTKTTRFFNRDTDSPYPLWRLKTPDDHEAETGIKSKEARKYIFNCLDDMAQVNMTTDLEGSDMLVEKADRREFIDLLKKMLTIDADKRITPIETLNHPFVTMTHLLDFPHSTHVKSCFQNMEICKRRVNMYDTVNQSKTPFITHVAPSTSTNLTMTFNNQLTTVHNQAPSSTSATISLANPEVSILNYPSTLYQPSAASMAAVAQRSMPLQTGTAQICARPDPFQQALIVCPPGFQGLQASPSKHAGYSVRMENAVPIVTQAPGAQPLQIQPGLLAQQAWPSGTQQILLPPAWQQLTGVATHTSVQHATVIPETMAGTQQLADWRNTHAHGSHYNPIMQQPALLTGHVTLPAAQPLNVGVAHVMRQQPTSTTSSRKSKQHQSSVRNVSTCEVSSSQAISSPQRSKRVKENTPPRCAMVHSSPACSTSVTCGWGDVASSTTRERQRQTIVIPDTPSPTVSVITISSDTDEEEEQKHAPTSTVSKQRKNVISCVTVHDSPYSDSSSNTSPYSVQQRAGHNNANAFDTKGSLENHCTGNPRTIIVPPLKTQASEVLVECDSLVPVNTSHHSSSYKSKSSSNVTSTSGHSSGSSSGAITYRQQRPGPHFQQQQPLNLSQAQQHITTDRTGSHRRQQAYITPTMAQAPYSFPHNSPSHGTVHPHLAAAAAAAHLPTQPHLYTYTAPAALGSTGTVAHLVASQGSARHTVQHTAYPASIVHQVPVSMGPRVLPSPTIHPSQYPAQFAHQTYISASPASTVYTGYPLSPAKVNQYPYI
Sequence of Serine/threonine-protein kinase B-raf (Homo sapiens), P15056 [V600E] (P15056 whole entry V600E): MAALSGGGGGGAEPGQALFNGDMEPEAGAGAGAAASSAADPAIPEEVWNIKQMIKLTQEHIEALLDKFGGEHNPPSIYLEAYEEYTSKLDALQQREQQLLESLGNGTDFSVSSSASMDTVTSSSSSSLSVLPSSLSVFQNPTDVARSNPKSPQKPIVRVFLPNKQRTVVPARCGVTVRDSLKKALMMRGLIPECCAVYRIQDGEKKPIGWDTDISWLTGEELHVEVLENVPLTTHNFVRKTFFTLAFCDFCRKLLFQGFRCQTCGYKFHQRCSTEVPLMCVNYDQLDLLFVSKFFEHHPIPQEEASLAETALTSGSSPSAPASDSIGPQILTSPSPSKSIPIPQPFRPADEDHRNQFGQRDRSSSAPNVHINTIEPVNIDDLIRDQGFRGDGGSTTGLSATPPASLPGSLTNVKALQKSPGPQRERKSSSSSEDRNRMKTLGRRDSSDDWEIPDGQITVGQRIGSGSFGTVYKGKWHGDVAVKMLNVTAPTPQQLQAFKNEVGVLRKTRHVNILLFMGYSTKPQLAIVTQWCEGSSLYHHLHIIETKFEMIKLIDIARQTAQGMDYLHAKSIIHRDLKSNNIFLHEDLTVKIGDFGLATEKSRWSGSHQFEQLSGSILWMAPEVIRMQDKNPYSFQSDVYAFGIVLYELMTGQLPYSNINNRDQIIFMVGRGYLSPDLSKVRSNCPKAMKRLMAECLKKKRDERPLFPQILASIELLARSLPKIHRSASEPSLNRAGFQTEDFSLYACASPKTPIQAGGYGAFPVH
Sequence of Serine/threonine-protein kinase Nek6 (Homo sapiens) (Q9HC98 whole entry): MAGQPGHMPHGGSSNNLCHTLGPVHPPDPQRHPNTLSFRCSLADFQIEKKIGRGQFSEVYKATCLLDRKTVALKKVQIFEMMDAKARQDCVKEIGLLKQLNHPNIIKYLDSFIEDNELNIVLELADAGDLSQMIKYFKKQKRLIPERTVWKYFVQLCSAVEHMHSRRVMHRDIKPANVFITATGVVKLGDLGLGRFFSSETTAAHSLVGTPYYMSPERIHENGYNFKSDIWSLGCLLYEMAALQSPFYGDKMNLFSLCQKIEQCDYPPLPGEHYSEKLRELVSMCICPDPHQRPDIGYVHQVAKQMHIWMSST

`COc1ccc2c3ccnc(C(F)(F)F)c3n(CCCCN)c2c1` was tested, and the inhibition [1] was 34%, the inhibition [2] was 97% and the inhibition [3] was 31%. For the same compound, the inhibition [4] was 7%, the inhibition [5] was 0% and the inhibition [6] was 60%. For the same compound, the inhibition [7] was 100%, the inhibition [8] was 68% and the inhibition [9] was 0%. The inhibition [10] was 4%, the inhibition [11] was 35% and the inhibition [12] was 41%. It also gave an inhibition [13] of 0%, an inhibition [14] of 42% and an inhibition [15] of 6%. For the same compound, the inhibition [16] was 1%, the inhibition [17] was 93% and the inhibition [18] was 0%. For the same compound, the inhibition [19] was 0%, the inhibition [20] was 0% and the inhibition [21] was 5%. For the same compound, the inhibition [22] was 44%, the inhibition [23] was 16% and the inhibition [24] was 28%. The inhibition [25] was 8%, the inhibition [26] was 16% and the inhibition [27] was 0%. It also gave an inhibition [28] of 14%, an inhibition [29] of 93% and an inhibition [30] of 53%. For the same compound, the inhibition [31] was 8%, the inhibition [32] was 17% and the inhibition [33] was 6%. For the same compound, the inhibition [34] was 2%, the inhibition [35] was 10% and the inhibition [36] was 35%. It also gave an inhibition [37] of 13%, an inhibition [38] of 26% and an inhibition [39] of 6%. The inhibition [40] was 13%, the inhibition [41] was 13% and the inhibition [42] was 10%. The inhibition [43] was 21%, the inhibition [44] was 4% and the inhibition [45] was 89%.
